In patent publication US12479827B2, “Heteroaromatic carboxamide derivatives as plasma kallikrein inhibitors” (Boehringer Ingelheim International GmbH, priority 2020, dated 2025):

Molecular target: T1, Human PKK (Homo sapiens, UniProt P03952)
T1 construct: purchased Enzyme Research Laboratories
Assay: Inhibition of PKK using an endpoint assay (human PKK)
Type: biochemical
Settings: fluorogenic substrate H-Pro-Phe-Arg-AMC, 1 h room temperature, method names human or rat PKK, table does not say which
Method: The ability of compounds of formula (I) to inhibit plasma kallikrein (PKK), Factor XIIa (FXIIa), Factor XIa (FXIa), Factor Xa (FXa), Factor IIa (alpha-thrombin; FIIa), plasmin, trypsin, tissue kallikrein 1 (TK1), Factor VIIa (FVIIa), or FVIIa complexed with Tissue Factor, phospholipids and CaCl2 (FVIIa/TF/PL/CaCl2) is determined using the following biochemical assays in assay buffer (100 mM Tris, 150 mM NaCL, adjusted to a pH of 7.8 with HCl, and containing 0.1% (w/v) BSA and 0.05% (v/v) Tween20) in the presence of 1% (v/v) DMSO:
Subsequently, PPACK II (Calbiochem) is added as a stop solution to achieve a final concentration of 1 μM and fluorescence is measured using an Envision Reader (PerkinElmer) with the wavelength excitation setting of 355 nm and the wavelength emission setting of 460 nm.

T1 sequence (P03952 20-390 limits assumed): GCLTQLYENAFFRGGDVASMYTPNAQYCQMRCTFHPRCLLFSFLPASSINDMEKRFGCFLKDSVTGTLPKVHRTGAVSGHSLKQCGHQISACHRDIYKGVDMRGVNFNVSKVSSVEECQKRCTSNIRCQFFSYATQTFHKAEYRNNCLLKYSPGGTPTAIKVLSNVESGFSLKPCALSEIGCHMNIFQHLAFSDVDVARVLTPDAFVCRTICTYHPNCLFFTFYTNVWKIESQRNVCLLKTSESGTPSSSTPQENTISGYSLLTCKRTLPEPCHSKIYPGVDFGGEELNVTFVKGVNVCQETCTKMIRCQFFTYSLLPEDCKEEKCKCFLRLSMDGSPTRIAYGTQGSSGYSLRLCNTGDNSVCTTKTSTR
T1 sequence (P03952 391-638 limits assumed): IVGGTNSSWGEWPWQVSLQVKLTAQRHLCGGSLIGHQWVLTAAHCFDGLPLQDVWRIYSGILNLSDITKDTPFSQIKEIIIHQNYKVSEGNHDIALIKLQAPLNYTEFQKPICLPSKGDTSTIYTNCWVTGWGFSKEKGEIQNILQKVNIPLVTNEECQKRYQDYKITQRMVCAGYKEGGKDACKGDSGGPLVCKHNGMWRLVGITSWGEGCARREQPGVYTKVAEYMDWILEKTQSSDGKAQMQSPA

Row | Structure (SMILES) | IC50
1 | Cn1cnc2c1CC[C@H]2NC(=O)c1cnn(Cc2ccc(N3CC4(CC4)C3)cn2)c1 [Example 19, 1-[(5-{5-Azaspiro[2.3]hexan-5-yl}pyridin-2-yl)-methyl]-N-[(4R)-1-methyl-1H,4H,5H,6H-cyclopenta[d]imidazol-4-yl]-1H-pyrazole-4-carboxamide] | 14.2 nM
2 | Cn1cnc2c1CC[C@H]2NC(=O)c1cn(Cc2ccc(N3CC4CC4C3)nc2OC(F)(F)F)cn1 (stereo partly drawn) [Example 38, 1-[(6-{3-Azabicyclo[3.1.0]hexan-3-yl}-2-(trifluoromethoxy)-pyridin-3-yl)methyl]-N-[(4R)-1-methyl-1H,4H,5H,6H-cyclopenta[d]imidazol-4-yl]-1H-imidazole-4-carboxamide] | 3.4 nM
3 | Cn1cnc2c1CC[C@H]2NC(=O)c1cnn(Cc2ccc(N3CC4CC4C3)nc2OC(F)(F)F)c1 (stereo partly drawn) [Example 58, 1-[(6-{3-Azabicyclo[3.1.0]hexan-3-yl}-2-(trifluoromethoxy)-pyridin-3-yl)methyl]-N-[(4R)-1-methyl-1H,4H,5H,6H-cyclopenta[d]imidazol-4-yl]-1H-pyrazole-4-carboxamide] | 2.5 nM
4 | CC(CO)c1nc(N2CC3CC3C2)ccc1Cn1cc(C(=O)N[C@@H]2CCc3c2ncn3C)cn1 (stereo partly drawn) [Example 59, 1-[(6-{3-Azabicyclo[3.1.0]hexan-3-yl}-2-(1-hydroxypropan-2-yl)pyridin-3-yl)methyl]-N-[(4R)-1-methyl-1H,4H,5H,6H-cyclopenta[d]imidazol-4-yl]-1H-pyrazole-4-carboxamide] | 0.4 nM
5 | Cn1cnc2c1CC[C@H]2NC(=O)c1cnn(Cc2ccc(N3CC4CC4C3)nn2)c1 (stereo partly drawn) [Example 60, 1-[(6-{3-Azabicyclo[3.1.0]hexan-3-yl}pyridazin-3-yl)methyl]-N-[(4R)-1-methyl-1H,4H,5H,6H-cyclopenta[d]imidazol-4-yl]-1H-pyrazole-4-carboxamide] | 18.8 nM
6 | Cn1cnc2c1CC[C@H]2NC(=O)c1cn(Cc2ccc(N3CC4(CC4)C3)nc2CO)nn1 [Example 61, 1-[(6-{5-Azaspiro[2.3]hexan-5-yl}-2-(hydroxymethyl)-pyridin-3-yl)methyl]-N-[(4R)-1-methyl-1H,4H,5H,6H-cyclo-penta[d]imidazol-4-yl]-1H-1,2,3-triazole-4-carboxamide] | 3.1 nM
7 | CC(C)Cc1nc(N2CC3CC3C2)ccc1Cn1cnc(C(=O)N[C@@H]2CCc3c2ncn3C)c1 (stereo partly drawn) [Example 100, 1-[(6-{3-Azabicyclo[3.1.0]hexan-3-yl}-2-(2-methylpropyl)pyridin-3-yl)methyl]-N-[(4R)-1-methyl-1H,4H,5H,6H-cyclopenta[d]imidazol-4-yl]-1H-imidazole-4-carboxamide] | 5.6 nM
8 | Cc1cc(Cn2cnc(C(=O)N[C@@H]3CCc4c3ncn4C)c2)c(C)nc1N1CC2CC2C1 (stereo partly drawn) [Example 129, 1-[(6-{3-Azabicyclo[3.1.0]hexan-3-yl}-2,5-dimethylpyridin-3-yl)methyl]-N-[(4R)-1-methyl-1H,4H,5H,6H-cyclopenta[d]imidazol-4-yl]-1H-imidazole-4-carboxamide] | 23.7 nM
9 | Cc1cc(Cn2cc(C(=O)N[C@@H]3CCc4c3ncn4C)cn2)c(C)nc1N1CC2CC2C1 (stereo partly drawn) [Example 130, 1-[(6-{3-Azabicyclo[3.1.0]hexan-3-yl}-2,5-dimethylpyridin-3-yl)methyl]-N-[(4R)-1-methyl-1H,4H,5H,6H-cyclopenta[d]imidazol-4-yl]-1H-pyrazole-4-carboxamide] | 20 nM
10 | Cn1cnc2c1CC[C@H]2NC(=O)c1cn(Cc2ccc(N3CC4C(C3)C4(F)F)cn2)nn1 (stereo partly drawn) [Example 138, 1-[(5-{6,6-Difluoro-3-azabicyclo[3.1.0]hexan-3-yl}pyridin-2-yl)methyl]-N-[(4R)-1-methyl-1H,4H,5H,6H-cyclopenta[d]imidazol-4-yl]-1H-1,2,3-triazole-4-carboxamide] | 2.2 nM
11 | CCc1nc(N2CC3(CC3)C2)ccc1Cc1cc(C(=O)N[C@@H]2CCc3c2ncn3C)on1 [Example 156, 3-[(6-{5-Azaspiro[2.3]hexan-5-yl}-2-ethylpyridin-3-yl)methyl]-N-[(4R)-1-methyl-1H,4H,5H,6H-cyclopenta[d]imidazol-4-yl]-1,2-oxazole-5-carboxamidef] | 0.8 nM
12 | Cn1cnc2c1CC[C@H]2NC(=O)c1cc(Cc2ccc(N3CC4(CC4)C3)nc2Cl)no1 [Example 157, 3-[(6-{5-Azaspiro[2.3]hexan-5-yl}-2-chloropyridin-3-yl)methyl]-N-[(4R)-1-methyl-1H,4H,5H,6H-cyclopenta[d]imidazol-4-yl]-1,2-oxazole-5-carboxamide] | 1.2 nM

Now from value to compound:

Row | IC50 | Structure (SMILES)
13 | 8.1 nM | Cc1nc(N2CC3(CC3)C2)ncc1Cn1cnc(C(=O)N[C@@H]2CCc3c2ncn3C)c1 [Example 172, 1-[(2-{5-Azaspiro[2.3]hexan-5-yl}-4-methylpyrimidin-5-yl)methyl]-N-[(4R)-1-methyl-1H,4H,5H,6H-cyclopenta[d]imidazol-4-yl]-1H-imidazole-4-carboxamide]
14 | 4.2 nM | Cn1cnc2c1CC[C@H]2NC(=O)c1cn(Cc2ccc(N3CC4C(C3)C4(F)F)nc2)c(Cl)n1 (stereo partly drawn) [Example 176, 2-Chloro-1-[(6-{6,6-difluoro-3-azabicyclo-[3.1.0]hexan-3-yl}pyridin-3-yl)methyl]-N-[(4R)-1-methyl-1H,4H,5H,6H-cyclopenta[d]imidazol-4-yl]-1H-imidazole-4-carboxamide]
15 | 19.4 nM | CCc1nc(N2CC3CC3C2)ccc1Cc1ccc(C(=O)N[C@@H]2CCc3c2ncn3C)s1 (stereo partly drawn) [Example 183, 5-[(6-{3-Azabicyclo[3.1.0]hexan-3-yl}-2-ethylpyridin-3-yl)methyl]-N-[(4R)-1-methyl-1H,4H,5H,6H-cyclopenta[d]imidazol-4-yl]thiophene-2-carboxamide]
16 | 22.1 nM | Cc1nc(N2CC3C(C2)C3(F)F)ccc1Cc1ccc(C(=O)N[C@@H]2CCc3c2ncn3C)o1 (stereo partly drawn) [Example 189, 5-[(6-{6,6-Difluoro-3-azabicyclo[3.1.0]hexan-3-yl}-2-methylpyridin-3-yl)methyl]-N-[(4R)-1-methyl-1H,4H,5H,6H-cyclopenta[d]imidazol-4-yl]furan-2-carboxamide]
17 | 169 nM | Cn1cnc2c1CC[C@H]2NC(=O)c1cnn(Cc2cc(F)c(N3CC4CC4C3)c(F)c2)c1 (stereo partly drawn) [Example 191, 1-[(4-{3-Azabicyclo[3.1.0]hexan-3-yl}-3,5-difluorophenyl)methyl]-N-[(4R)-1-methyl-1H,4H,5H,6H-cyclopenta[d]imidazol-4-yl]-1H-pyrazole-4-carboxamide]
18 | 1890 nM | Cn1cnc2c1CC[C@H]2NC(=O)c1cnc(Cc2cc(F)c(N3CC4CC4C3)c(F)c2)[nH]1 (stereo partly drawn) [Example 192, 2-[(4-{3-azabicyclo[3.1.0]hexan-3-yl}-3,5-difluorophenyl)methyl]-N-[(4R)-1-methyl-1H,4H,5H,6H-cyclopenta[d]imidazol-4-yl]-1H-imidazole-4-carboxamide]
19 | 20.3 nM | Cn1cnc2c1CC[C@H]2NC(=O)c1cnn(Cc2cc(F)c(N3CC4CC4C3)c(C#N)c2)c1 (stereo partly drawn) [Example 195, 1-[(4-{3-azabicyclo[3.1.0]hexan-3-yl}-3-cyano-5-fluorophenyl)methyl]-N-[(4R)-1-methyl-1H,4H,5H,6H-cyclopenta[d]imidazol-4-yl]-1H-pyrazole-4-carboxamide]
20 | 13.4 nM | Cn1cnc2c1CC[C@H]2NC(=O)c1cnn(Cc2cc(C#N)c(N3CC4CC4C3)c(C#N)c2)c1 (stereo partly drawn) [Example 197, 1-[(4-{3-azabicyclo[3.1.0]hexan-3-yl}-3,5-dicyanophenyl)methyl]-N-[(4R)-1-methyl-1H,4H,5H,6H-cyclopenta[d]imidazol-4-yl]-1H-pyrazole-4-carboxamide]
21 | 8.6 nM | Cc1cc(N2CC3CC3C2)c(C#N)cc1Cn1cc(C(=O)N[C@@H]2CCc3c2ncn3C)cn1 (stereo partly drawn) [Example 200, 1-[(4-{3-azabicyclo[3.1.0]hexan-3-yl}-5-cyano-2-methylphenyl)methyl]-N-[(4R)-1-methyl-1H,4H,5H,6H-cyclopenta[d]imidazol-4-yl]-1H-pyrazole-4-carboxamide]
22 | 8.3 nM | Cc1cc(N2CC3CC3C2)ccc1Cn1cnc(C(=O)N[C@@H]2CCc3c2ncn3C)c1 (stereo partly drawn) [Example 205, 1-[(4-{3-azabicyclo[3.1.0]hexan-3-yl}-2-methylphenyl)methyl]-N-[(4R)-1-methyl-1H,4H,5H,6H-cyclopenta[d]imidazol-4-yl]-1H-imidazole-4-carboxamide]
23 | 2.8 nM | COc1nc(N2CC3C(C2)C3(F)F)ccc1Cn1cc(C(=O)N[C@@H]2CCc3c2ncn3C)cn1 (stereo partly drawn) [Example 221, 1-[(6-{6,6-Difluoro-3-azabicyclo[3.1.0]hexan-3-yl}-2-methoxypyridin-3-yl)methyl]-N-[(4R)-1-methyl-1H,4H,5H,6H-cyclopenta[d]imidazol-4-yl]-1H-pyrazole-4-carboxamide]
24 | 7540 nM | Cc1nc(N2CCC3(CC2)CC(C)(O)C3)ncc1Cn1cc(C(=O)N[C@@H]2CCc3c2ncn3C)cn1 [Example 223, 1-[(2-{2-Hydroxy-2-methyl-7-azaspiro[3.5]nonan-7-yl}-4-methylpyrimidin-5-yl)methyl]-N-[(4R)-1-methyl-1H,4H,5H,6H-cyclopenta[d]imidazol-4-yl]-1H-pyrazole-4-carboxamide]
25 | 302 nM | Cc1nc(N2C[C@@H]3[C@H](C#N)[C@@H]3C2)ncc1Cn1cc(C(=O)N[C@@H]2CCc3c2ncn3C)cn1 [Example 224, 1-({2-[(1R,5S,6S)-6-Cyano-3-azabicyclo[3.1.0]Lhexan-3-yl]-4-methylpyrimidin-5-yl}methyl)-N-[(4R)-1-methyl-1H,4H,5H,6H-cyclopenta[d]imidazol-4-yl]-1H-pyrazole-4-carboxamide]
